{"source": "patent EP4664463A1", "about": "“COMPUTER-IMPLEMENTED METHOD FOR OLFACTORY PROPERTY PREDICTION” (Givaudan SA, priority 2024, dated 2025)", "key": {"OR1N2 [1]": {"target": "T1, OR1N2 (Homo sapiens, UniProt Q8NGR9)", "T1 construct": "expressed in transfected cells; host or cells: HEK293T cells stably expressing human RTP1S (V227I) and RTP2 (L220R)", "assay_type": "cell-based", "conditions": "changed C-term. SEQ ID NO: 86", "excerpt": "(§1) To create an expression plasmid, an OR coding sequence fused at the end of TM7 to the desired C-terminus sequence was synthesized by a DNA synthesis service provider (BioCat GmbH, Germany) and inserted into pcDNA3.1(+) (Invitrogen, MA, USA) downstream of the CMV promoter sequence (SEQ ID NO: 82) using BamHI and Notl restriction sites. All the synthetic OR nucleotide sequences described below in Examples 1-15 further contained at their N-terminus a nucleotide sequence encoding a signal peptide (mmLucy-FLAG-rho, SeQ ID NOs: 80, 81) and at the C-terminus the bgh terminator sequence (SEQ ID NO: 83). All the OR expression plasmids also contain a Kozak sequence (GCCACC) between the BamHI restriction site and the start codon of the signal peptide. These plasmids thus contain a constitutively expressed OR gene.", "T1 sequence (Q8NGR9 with tags, fused parts or gaps)": "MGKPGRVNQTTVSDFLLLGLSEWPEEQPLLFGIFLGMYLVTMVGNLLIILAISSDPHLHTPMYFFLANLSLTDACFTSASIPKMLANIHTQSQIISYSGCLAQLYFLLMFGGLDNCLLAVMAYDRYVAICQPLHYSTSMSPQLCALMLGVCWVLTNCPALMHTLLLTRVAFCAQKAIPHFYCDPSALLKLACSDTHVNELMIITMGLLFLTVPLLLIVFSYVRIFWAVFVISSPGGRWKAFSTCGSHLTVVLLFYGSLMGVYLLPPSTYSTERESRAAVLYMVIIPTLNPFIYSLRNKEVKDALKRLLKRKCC"}, "OR1N2 [2]": {"target": "T2, OR1N2 (Homo sapiens, UniProt Q8NGR9)", "T2 construct": "expressed in transfected cells; host or cells: HEK293T cells stably expressing human RTP1S (V227I) and RTP2 (L220R)", "assay_type": "cell-based", "conditions": "wild-type", "excerpt": "as §1", "T2 sequence (Q8NGR9 whole entry, the tested form may be a part)": "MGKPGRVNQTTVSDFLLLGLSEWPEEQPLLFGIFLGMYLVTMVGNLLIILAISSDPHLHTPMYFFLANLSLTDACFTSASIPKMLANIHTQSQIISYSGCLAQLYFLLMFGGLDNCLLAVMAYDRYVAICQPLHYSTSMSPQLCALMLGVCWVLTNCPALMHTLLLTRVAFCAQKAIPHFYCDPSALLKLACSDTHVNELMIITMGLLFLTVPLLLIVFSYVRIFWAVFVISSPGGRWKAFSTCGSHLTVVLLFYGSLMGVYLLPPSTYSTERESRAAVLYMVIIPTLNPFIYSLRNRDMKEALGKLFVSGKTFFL"}, "[3]": {"target": "T3, OR identified in the library screening (receptor named per line) (Homo sapiens, UniProt Q8NGG4)", "T3 construct": "expressed in transfected cells; host or cells: HEK293T stably expressing human RTP1S(V227I) and RTP2(L220R) (general method)", "experiment": "Confirmatory dose-response of library hits, wild-type OR vs OR with C-terminus SEQ ID NO: 221 (Table 17)", "assay_type": "cell-based", "conditions": "receptor OR8H1, wild-type sequence; read-out: Potency EC50 wild-type (converted)", "experimental": "(§3) Selected ligand - OR pairs were then tested in a confirmatory test with a dose response analysis.\n(§4) Dose-response analysis with the cognate ligand was then performed for both the wild-type and the modified sequence."}, "[4]": {"test_system": "library of all class I OR with C-terminal domain RNKQIRDALKRLLKRKCCRRR (SEQ ID NO: 741)", "experiment": "Screening of the library of all class I OR with carboxylic acid ligands (luciferase)", "assay_type": "cell-based, human", "conditions": "full class I OR library (n = 77)", "protocol": "All human class I OR and all key genetic variants of these OR were synthesized with a sequence coding for the identical C-terminal domain […] (SEQ ID NO: 741) in the vector pcDNA3.1(+) to generate a library of all class I OR with an improved C-terminal domain. Class I OR library members\nParallel transfection experiments were conducted with all these plasmids (n = 77, SEQ ID NO: 760, OR51F1 was excluded due to poor plasmid yield) and cells expressing the different OR were stimulated with one given ligand at a time. In total 10 different carboxylic acids ligands were tested on the full library of class I receptors."}, "[5]": {"target": "T4, OR identified in the library screening (receptor named per line) (Homo sapiens, UniProt Q8NGN4)", "T4 construct": "expressed in transfected cells; host or cells: HEK293T stably expressing human RTP1S(V227I) and RTP2(L220R) (general method)", "experiment": "Confirmatory dose-response of library hits, wild-type OR vs OR with C-terminus SEQ ID NO: 221 (Table 17)", "assay_type": "cell-based", "conditions": "receptor OR10G9, wild-type sequence; read-out: Potency EC50 wild-type (converted)", "experimental": "as §3, §4"}, "[6]": {"target": "T5, OR identified in the library screening (receptor named per line) (Homo sapiens, UniProt Q8NG80)", "T5 construct": "expressed in transfected cells; host or cells: HEK293T stably expressing human RTP1S(V227I) and RTP2(L220R) (general method)", "experiment": "Confirmatory dose-response of library hits, wild-type OR vs OR with C-terminus SEQ ID NO: 221 (Table 17)", "assay_type": "cell-based", "conditions": "receptor OR2L5, wild-type sequence; read-out: Potency EC50 wild-type (converted)", "experimental": "as §3, §4"}, "[7]": {"target": "T6, OR identified in the library screening (receptor named per line) (Homo sapiens, UniProt Q8NGC4, S73G)", "T6 construct": "expressed in transfected cells; host or cells: HEK293T stably expressing human RTP1S(V227I) and RTP2(L220R) (general method)", "T6 sequence (Q8NGC4 whole entry S73G)": "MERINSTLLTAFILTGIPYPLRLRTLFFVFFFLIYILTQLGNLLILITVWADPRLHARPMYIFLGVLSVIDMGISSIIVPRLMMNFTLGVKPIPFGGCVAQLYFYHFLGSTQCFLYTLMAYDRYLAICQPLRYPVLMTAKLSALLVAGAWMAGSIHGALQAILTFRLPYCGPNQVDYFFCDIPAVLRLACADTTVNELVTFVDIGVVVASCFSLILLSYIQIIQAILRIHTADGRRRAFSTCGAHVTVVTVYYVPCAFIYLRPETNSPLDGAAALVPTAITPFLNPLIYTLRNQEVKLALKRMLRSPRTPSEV", "experiment": "Confirmatory dose-response of library hits, wild-type OR vs OR with C-terminus SEQ ID NO: 221 (Table 17)", "assay_type": "cell-based", "conditions": "receptor OR10G3(S73G), wild-type sequence; read-out: Potency EC50 wild-type (converted)", "experimental": "as §3, §4"}, "[8]": {"target": "T7, OR identified in the library screening (receptor named per line) (Homo sapiens, UniProt Q8WZ84)", "T7 construct": "expressed in transfected cells; host or cells: HEK293T stably expressing human RTP1S(V227I) and RTP2(L220R) (general method)", "experiment": "Confirmatory dose-response of library hits, wild-type OR vs OR with C-terminus SEQ ID NO: 221 (Table 17)", "assay_type": "cell-based", "conditions": "receptor OR8D1, wild-type sequence; read-out: Potency EC50 wild-type (converted)", "experimental": "as §3, §4"}, "OR7A17 [9]": {"target": "T8, OR7A17 (Homo sapiens, UniProt O14581)", "T8 construct": "expressed in transfected cells; host or cells: HEK293T cells stably expressing human RTP1S (V227I) and RTP2 (L220R)", "experiment": "Luciferase dose-response, wild-type vs changed C-terminus (SEQ ID NO: 86)", "assay_type": "cell-based", "conditions": "wild-type", "excerpt": "as §1\n(§2) Thus, optimal improvement of activity is not achieved by the approach of just using the parent C-terminus and mutating it towards consensus, but rather by exchanging the C-terminal sequence with the optimized sequence described herein.", "T8 sequence (O14581 whole entry)": "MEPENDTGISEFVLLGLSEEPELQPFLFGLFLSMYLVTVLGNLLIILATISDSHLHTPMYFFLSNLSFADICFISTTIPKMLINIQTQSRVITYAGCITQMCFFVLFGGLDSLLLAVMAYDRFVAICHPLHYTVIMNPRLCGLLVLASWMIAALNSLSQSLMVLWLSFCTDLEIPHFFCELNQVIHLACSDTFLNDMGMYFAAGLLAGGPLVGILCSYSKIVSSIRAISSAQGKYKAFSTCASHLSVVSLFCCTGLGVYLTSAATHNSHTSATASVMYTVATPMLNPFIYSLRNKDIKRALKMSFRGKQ"}, "OR7A17 [10]": {"target": "T9, OR7A17 (Homo sapiens, UniProt O14581, D296E/I297V/R299D)", "T9 construct": "expressed in transfected cells; host or cells: HEK293T cells stably expressing human RTP1S (V227I) and RTP2 (L220R)", "T9 sequence (O14581 with tags, fused parts or gaps D296E/I297V/R299D)": "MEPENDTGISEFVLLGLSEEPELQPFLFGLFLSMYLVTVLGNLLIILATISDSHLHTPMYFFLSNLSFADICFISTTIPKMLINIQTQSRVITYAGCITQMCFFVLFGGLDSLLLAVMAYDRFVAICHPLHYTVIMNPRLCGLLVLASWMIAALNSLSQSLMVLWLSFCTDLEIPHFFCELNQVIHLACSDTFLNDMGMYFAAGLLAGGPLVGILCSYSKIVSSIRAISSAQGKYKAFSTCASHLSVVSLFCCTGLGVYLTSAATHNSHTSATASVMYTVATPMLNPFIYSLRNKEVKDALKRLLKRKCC", "experiment": "Luciferase dose-response, wild-type vs changed C-terminus (SEQ ID NO: 86)", "assay_type": "cell-based", "excerpt": "as §1, §2"}, "OR7A17 [11]": {"test_system": "OR7A17", "experiment": "Luciferase dose-response, wild-type vs changed C-terminus (SEQ ID NO: 86)", "assay_type": "cell-based, human", "excerpt": "as §1, §2"}, "OR7A17 [12]": {"target": "T10, OR7A17 (Homo sapiens, UniProt O14581)", "T10 construct": "expressed in transfected cells; host or cells: HEK293T cells stably expressing human RTP1S (V227I) and RTP2 (L220R) (general approach)", "experiment": "Detection of Ambrofix spiked into Geranium oil on OR7A17 with SEQ ID 221", "assay_type": "cell-based", "T10 sequence (O14581 with tags, fused parts or gaps)": "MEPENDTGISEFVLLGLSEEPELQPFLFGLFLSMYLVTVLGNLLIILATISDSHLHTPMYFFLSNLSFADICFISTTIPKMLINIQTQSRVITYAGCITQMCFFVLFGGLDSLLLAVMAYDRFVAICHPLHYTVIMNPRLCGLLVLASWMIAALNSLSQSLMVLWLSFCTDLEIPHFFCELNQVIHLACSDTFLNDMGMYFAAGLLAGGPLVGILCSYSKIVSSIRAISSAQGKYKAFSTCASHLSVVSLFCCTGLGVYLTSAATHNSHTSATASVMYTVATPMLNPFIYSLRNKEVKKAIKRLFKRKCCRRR", "experimental": "These mixtures were tested with OR7A17 with a C-terminal domain of SEQ ID 221 (a DNA sequence encoding the modified receptor is included as SEQ ID NO: 611) as described in example 20."}}, "note": "Several values for one entry are separate records, joined by “and”; a condition that tells them apart may be missing. Equal entries are not always repeated. Where two headings read alike, the source gives them in different places.", "data": [{"smiles": "O=C1CCCCCCCC=CCCCCCCO1", "note": "[Ambrettolide]", "values": [{"measurement": "Detection threshold; concentration for 2-fold induction", "setting": "OR1N2 [1]", "result": 0.26, "unit": "µM"}, {"measurement": "Detection threshold; concentration for 2-fold induction", "setting": "OR1N2 [2]", "result": 1.33, "unit": "µM"}]}, {"smiles": "N#CC(=C1CCCCC1)c1ccccc1", "note": "[Peonile]", "values": [{"measurement": "EC50", "setting": "[3]", "result": 17.3, "unit": "µM"}]}, {"smiles": "CCC=C(C)C(=O)O", "note": "[2-Methyl-2-pentenoic acid]", "values": [{"measurement": "Activated OR and OR variants", "setting": "[4]", "result": "No activation observed"}]}, {"smiles": "CCOc1cc(C)ccc1O", "note": "[Ultravan il]", "values": [{"measurement": "EC50", "setting": "[5]", "result": 91.4, "unit": "µM"}]}, {"smiles": "CCOC(=O)C1CCCCC1", "note": "[Ethyl cyclohexanecarboxylate (Esterly), Ethyl cyclohexanecarboxylate]", "values": [{"measurement": "EC50", "setting": "[6]", "result": 115, "unit": "µM"}]}, {"smiles": "COc1cc(C=O)ccc1O", "note": "[Vanillin]", "values": [{"measurement": "EC50", "setting": "[7]", "result": 261, "unit": "µM"}]}, {"smiles": "CC1=C(O)C(=O)OC1C", "note": "(stereo not drawn) [Sotolon e]", "values": [{"measurement": "EC50", "setting": "[8]", "result": 19, "unit": "µM"}]}, {"smiles": "CC1(C)CCCC2(C)C1CCC1(C)OCCC12", "note": "(stereo not drawn) [Ambrofix]", "values": [{"measurement": "Detection threshold; concentration for 2-fold induction", "setting": "OR7A17 [9]", "result": 1.9, "unit": "µM"}, {"measurement": "EC50", "setting": "OR7A17 [9]; read-out: Potency EC50", "result": 5.6, "unit": "µM"}, {"measurement": "EC50", "setting": "OR7A17 [10]; changed C-term SEQ ID NO: 86, read-out: Potency EC50", "result": 1.3, "unit": "µM"}, {"measurement": "Detection threshold; concentration for 2-fold induction", "setting": "OR7A17 [10]; changed C-term. SEQ ID NO: 86", "result": 0.1, "unit": "µM"}, {"measurement": "Comments on efficacy", "setting": "OR7A17 [11]", "result": "2-fold lower maximal induction for wild-type"}, {"measurement": "Fold-improvement potency", "setting": "OR7A17 [11]", "result": 4.2}, {"measurement": "Fold-improvement threshold", "setting": "OR7A17 [11]", "result": "18 and 18.4"}, {"measurement": "lowering of detection threshold vs wild-type", "setting": "OR7A17 [11]; OR7A17 C-terminus altered towards consensus", "result": 3, "unit": "fold"}, {"measurement": "detection threshold for two-fold induction", "setting": "OR7A17 [11]; OR7A17 C-terminus altered towards consensus (5 amino acids)", "result": 0.6, "unit": "µM"}, {"measurement": "detectable concentration of target ingredient against a complex matrix", "setting": "OR7A17 [12]", "result": "≤ 0.1", "unit": "%"}]}]}
